# Data taken from patent US6855843B2, “Inhibitors of α4 mediated cell adhesion” (Tanabe Seiyaku Co., Ltd., priority 1998, dated 2005).
# Tests used:
# [1] = target: T1, α4β7 (adhesion of RPMI cells to CS-1) (Homo sapiens, UniProt P13612+P26010); test: RPMI-CS-1 cell adhesion assay; format: cell-based; details: adhesion of RPMI B-cell line (expresses α4β7) to CS-1 peptide coated microwells; read-out: RPMI-CS-1 IC50 value range
# T1 construct: endogenous in cells
# T1 sequence (P13612 34-1032): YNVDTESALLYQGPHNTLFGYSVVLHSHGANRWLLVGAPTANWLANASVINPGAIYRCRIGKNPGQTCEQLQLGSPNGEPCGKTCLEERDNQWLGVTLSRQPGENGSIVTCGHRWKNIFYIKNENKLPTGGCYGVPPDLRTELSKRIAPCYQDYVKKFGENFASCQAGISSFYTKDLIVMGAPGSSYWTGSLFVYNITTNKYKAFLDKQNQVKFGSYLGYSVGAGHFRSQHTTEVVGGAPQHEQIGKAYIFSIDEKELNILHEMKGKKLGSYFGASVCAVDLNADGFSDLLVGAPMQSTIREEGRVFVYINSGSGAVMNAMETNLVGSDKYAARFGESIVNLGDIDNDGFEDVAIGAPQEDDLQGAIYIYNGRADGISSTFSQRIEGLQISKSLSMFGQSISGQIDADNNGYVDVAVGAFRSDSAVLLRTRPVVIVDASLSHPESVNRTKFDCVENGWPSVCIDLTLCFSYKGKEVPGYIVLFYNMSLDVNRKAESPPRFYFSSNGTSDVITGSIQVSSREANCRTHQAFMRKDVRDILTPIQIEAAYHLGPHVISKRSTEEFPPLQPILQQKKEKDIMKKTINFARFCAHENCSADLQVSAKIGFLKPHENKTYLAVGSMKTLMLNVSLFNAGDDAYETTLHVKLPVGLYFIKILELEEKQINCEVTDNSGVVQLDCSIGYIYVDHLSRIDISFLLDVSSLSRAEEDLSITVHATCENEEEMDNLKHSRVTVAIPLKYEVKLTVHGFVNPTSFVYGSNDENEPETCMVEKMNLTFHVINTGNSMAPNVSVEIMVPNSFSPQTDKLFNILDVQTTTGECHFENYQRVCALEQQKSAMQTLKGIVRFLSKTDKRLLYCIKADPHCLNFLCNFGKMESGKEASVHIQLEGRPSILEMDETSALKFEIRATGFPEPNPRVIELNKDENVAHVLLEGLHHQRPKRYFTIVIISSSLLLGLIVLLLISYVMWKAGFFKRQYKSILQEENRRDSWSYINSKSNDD
# T1 sequence (P26010 20-798): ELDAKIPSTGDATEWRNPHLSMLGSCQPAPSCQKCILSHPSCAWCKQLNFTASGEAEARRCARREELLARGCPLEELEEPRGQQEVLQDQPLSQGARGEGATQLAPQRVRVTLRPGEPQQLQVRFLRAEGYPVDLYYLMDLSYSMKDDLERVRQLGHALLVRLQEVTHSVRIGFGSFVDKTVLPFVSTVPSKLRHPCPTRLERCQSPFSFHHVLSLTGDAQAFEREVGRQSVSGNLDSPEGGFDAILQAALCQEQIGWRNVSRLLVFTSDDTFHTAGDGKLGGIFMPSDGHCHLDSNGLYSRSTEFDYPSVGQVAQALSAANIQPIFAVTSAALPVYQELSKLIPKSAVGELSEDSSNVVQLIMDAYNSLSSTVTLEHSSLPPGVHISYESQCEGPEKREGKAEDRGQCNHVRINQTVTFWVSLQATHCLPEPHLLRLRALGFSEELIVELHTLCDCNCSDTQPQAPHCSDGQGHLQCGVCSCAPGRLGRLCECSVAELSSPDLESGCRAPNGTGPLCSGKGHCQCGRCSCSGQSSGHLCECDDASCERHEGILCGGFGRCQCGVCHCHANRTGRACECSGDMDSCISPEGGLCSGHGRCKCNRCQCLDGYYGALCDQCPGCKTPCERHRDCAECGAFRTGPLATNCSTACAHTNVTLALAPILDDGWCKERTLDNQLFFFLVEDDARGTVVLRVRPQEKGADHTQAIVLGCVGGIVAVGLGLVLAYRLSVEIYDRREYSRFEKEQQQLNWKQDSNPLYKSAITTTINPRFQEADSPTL
Compound,melting point,IC50 [1]
"COc1cccc(OC)c1-c1ccc(CC[C@H](NC(=O)c2c(Cl)cccc2Cl)C(=O)O)cc1 [Example 295, N-(2,6-Dichlorobenzoyl)-4-(2,6-dimethoxyphenyl)-L-homophenylalanine]",105 to 107 °C,1000 to 5000 nM
"CCc1cc(C[C@H](NC(=O)c2c(Cl)cccc2Cl)C(=O)O)ccc1-c1ccccc1OC [Example 296, N-(2,6-Dichlorobenzoyl)-3-ethyl-4-(2-methoxyphenyl)-L-phenylalanine]",105 to 107 °C,< 300 nM
"COc1cccc(OC)c1-c1ccc(C[C@H](NC(=O)c2c(Cl)cccc2Cl)C(=O)O)cc1NC(C)=O [Example 297, N-(2,6-Dichlorobenzoyl)-4-(2,6-dimethoxyphenyl)-3-acetylamino-L-phenylalanine]",142 to 144 °C,< 300 nM
COc1cccc(OC)c1-c1ccc(C[C@H](NC(=O)c2c(Cl)cccc2Cl)C(=O)O)cc1NS(C)(=O)=O [Example 298],118 to 120 °C,< 300 nM
CCOC(=O)Nc1cc(C[C@H](NC(=O)c2c(Cl)cccc2Cl)C(=O)O)ccc1-c1c(OC)cccc1OC [Example 299],216 to 217 °C,< 300 nM
"COc1cccc(OC)c1-c1ccc(C[C@H](NC(=O)c2c(Cl)cc(-c3ccccc3)cc2Cl)C(=O)O)cc1 [Example 301, N-(2,6-Dichloro-4-phenylbenzoyl)-4-(2,6-dimethoxyphenyl)-L-phenylalanine]",215 °C,< 300 nM
"COc1cccc(OC)c1-c1ccc(C[C@H](NC(=O)c2c(Cl)cc(-c3cccn3C)cc2Cl)C(=O)O)cc1 [Example 302, N-[2,6-Dichloro-4-(1-methyl-2-pyrrolyl)benzoyl]-4-(2,6-dimethoxyphenyl)-L-phenylalanine]",199 °C,< 300 nM
"COc1cccc(OC)c1-c1ccc(C[C@H](NC(=O)c2c(Cl)cc(-c3ccc[nH]3)cc2Cl)C(=O)O)cc1 [Example 303, N-[4-(2-Pyrrolyl)-2,6-dichlorobenzoyl]-4-(2,6-dimethoxyphenyl)-L-phenylalanine]",250 °C,< 300 nM
"COc1cccc(OC)c1-c1ccc(C[C@H](NC(=O)c2c(Cl)ccc(-c3c(C)noc3C)c2Cl)C(=O)O)cc1 [Example 305, N-[3-(3,5-Dimethyl-4-isoxazolyl)-2,6-dichlorobenzoyl]-4-(2,6-dimethoxyphenyl)-L-phenylalanine]",144.8 °C,300 to 1000 nM
"COc1cccc(OC)c1-c1ccc(C[C@H](NC(=O)c2c(Cl)cc(-c3nccs3)cc2Cl)C(=O)O)cc1 [Example 306, N-[4-(1,3-thiazol-2-yl)-2,6-dichlorobenzoyl]-4-(2,6-dimethoxyphenyl)-L-phenylalanine]",141.9 °C,< 300 nM
"COc1cccc(OC)c1-c1ccc(C[C@H](NC(=O)c2c(Cl)cc(-c3cscn3)cc2Cl)C(=O)O)cc1 [Example 307, N-[4-(1,3-Thiazol-4-yl)-2,6-dichlorobenzoyl]-4-(2,6-dimethoxyphenyl)-L-phenylalanine]",186.5 °C,< 300 nM
"COc1cccc(OC)c1-c1ccc(C[C@H](NC(=O)c2c(Cl)cc(-c3cnccn3)cc2Cl)C(=O)O)cc1 [Example 308, N-[4-(2-Pyrazinyl)-2,6-dichlorobenzoyl]-4-(2,6-dimethoxyphenyl)-L-phenylalanine]",145.7 °C,< 300 nM
"COc1ccc(CN2CCOCC2)c(OC)c1-c1ccc(C[C@H](NC(=O)c2c(Cl)cccc2Cl)C(=O)O)cc1 [Example 319, N-(2,6-Dichlorobenzoyl)-4-[2,6-dimethoxy-3-(morpholinomethyl)phenyl]-L-phenylalanine]",241 to 242 °C,< 300 nM
"COc1cccc(OC)c1-c1ccc(C[C@H](NC(=O)c2c(Cl)cc(F)cc2Cl)C(=O)O)cc1 [Example 320, N-(2,6-Dichloro-4-fluorobenzoyl)-4-(2,6-dimethoxyphenyl)-L-phenylalanine]",206 to 207 °C,< 300 nM
"COc1cc(C(F)(F)F)cc(OC)c1-c1ccc(C[C@H](NC(=O)c2c(Cl)cccc2Cl)C(=O)O)cc1 [Example 321, N-(2,6-Dichlorobenzoyl)-4-[2,6-dimethoxy-4-(trifluoromethyl)phenyl]-L-phenylalanine]",231 to 232 °C,< 300 nM
"CNC(=O)Nc1ccc(OC)c(-c2ccc(C[C@H](NC(=O)c3c(Cl)cccc3Cl)C(=O)O)cc2)c1OC [Example 324, N-(2,6-Dichlorobenzoyl)-4-[2,6-dimethoxy-3-(methylureido)phenyl]-L-phenylalanine]",236 to 237 °C,< 300 nM
"COc1ccc(NC(C)=O)c(OC)c1-c1ccc(C[C@H](NC(=O)c2c(Cl)cccc2Cl)C(=O)O)cc1 [Example 325, N-(2,6-Dichlorobenzoyl)-4-[2,6-dimethoxy-3-(acetylamino)phenyl]-L-phenylalanine]",244 to 245 °C,< 300 nM
"COc1ccc(C(N)=O)c(OC)c1-c1ccc(C[C@H](NC(=O)c2c(Cl)cccc2Cl)C(=O)O)cc1 [Example 326, N-(2,6-Dichlorobenzoyl)-4-(2,6-dimethoxy-3-carbamoylphenyl)-L-phenylalanine]",227 to 228 °C,< 300 nM
O=C(N[C@@H](Cc1ccc(-c2cccc3c2OCC3)cc1)C(=O)O)c1c(Cl)cccc1Cl [Example 327],215 to 216 °C,< 300 nM
O=C(N[C@@H](Cc1ccc(-c2cccc3c2OCCC3)cc1)C(=O)O)c1c(Cl)cccc1Cl [Example 328],214 to 215 °C,< 300 nM
"CC(C)(C)OC(=O)n1cccc1-c1ccc(C[C@H](NC(=O)c2c(Cl)cccc2Cl)C(=O)O)cc1 [Example 329, N-(2,6-Dichlorobenzoyl)-4-(1-tert-butoxycarbonyl-2-pyrrolyl)-L-phenylalanine]",98 to 99 °C,1000 to 5000 nM
"COc1cccc(OC)c1-c1ccc(C[C@H](NC(=O)c2c(Cl)ccc(Br)c2Cl)C(=O)O)cc1 [Example 331, N-(2,6-Dichloro-3-bromobenzoyl)-4-(2,6-dimethoxyphenyl)-L-phenylalanine]",234.8 °C,< 300 nM
"CS(=O)(=O)Nc1ccc(C(=O)N[C@@H](Cc2ccc(-c3ccccc3C(F)(F)F)cc2)C(=O)O)c(Cl)c1 [Example 335, N-[2-Chloro-4-(methansulfonylamino)benzoyl]-4-[2-(trifluoromethyl)phenyl]-L-phenylalanine]",114 °C,300 to 1000 nM
"COc1ccccc1-c1ccc(C[C@H](NC(=O)c2c(Cl)cccc2Cl)C(=O)O)cc1Cl [Example 336, N-(2,6-Dichlorobenzoyl)-3-chloro-4-(2-methoxyphenyl)-L-phenylalanine]",131 °C,< 300 nM
CCC(=O)c1cc(C[C@H](NC(=O)c2c(Cl)cccc2Cl)C(=O)O)ccc1-c1ccccc1OC [Example 337],118 to 119 °C,< 300 nM
CCCCC(=O)c1cc(C[C@H](NC(=O)c2c(Cl)cccc2Cl)C(=O)O)ccc1-c1ccccc1OC [Example 338],117.6 °C,< 300 nM
CCCCCCC(=O)c1cc(C[C@H](NC(=O)c2c(Cl)cccc2Cl)C(=O)O)ccc1-c1ccccc1OC [Example 339],86 to 88 °C,< 300 nM
